# According to US20130203709A1, “ACYLSULFONAMIDES AND PROCESSES FOR PRODUCING THE SAME” (priority 2010, published 2013):
# Read-outs that look alike come from different tables or passages of the source.
# How the values were obtained:
# Bcl-XL = Bcl-XL (Homo sapiens, UniProt Q07817); test: fluorescence polarization (FP) assay, disruption of the Bcl-XL/BH3 interaction; format: binding; conditions: for inhibition at 100 µM: read-out: % Inhibition Bcl-XL; for inhibition at 50 µM: 50 μM acylsulfonamide, disruption of Bcl-XL/BH3 interaction in FP assay, read-out: Percentage Inhibition at 50 μM acylsulfonamide concentrations
# Bcl-XL, sequence (Q07817 whole entry): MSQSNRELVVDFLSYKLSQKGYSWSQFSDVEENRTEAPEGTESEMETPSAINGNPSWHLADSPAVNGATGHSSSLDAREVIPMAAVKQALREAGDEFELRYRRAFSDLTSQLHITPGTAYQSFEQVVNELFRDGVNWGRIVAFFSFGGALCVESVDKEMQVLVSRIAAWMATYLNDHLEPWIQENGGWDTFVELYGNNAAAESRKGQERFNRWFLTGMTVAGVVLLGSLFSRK
# Mcl-1 = Mcl-1 (Homo sapiens, UniProt Q07820); test: fluorescence polarization (FP) assay, disruption of the Mcl-1/BH3 interaction; format: binding; conditions: for inhibition at 100 µM: read-out: % Inhibition Mcl-1
# Mcl-1, sequence (Q07820 whole entry, the tested form may be a part): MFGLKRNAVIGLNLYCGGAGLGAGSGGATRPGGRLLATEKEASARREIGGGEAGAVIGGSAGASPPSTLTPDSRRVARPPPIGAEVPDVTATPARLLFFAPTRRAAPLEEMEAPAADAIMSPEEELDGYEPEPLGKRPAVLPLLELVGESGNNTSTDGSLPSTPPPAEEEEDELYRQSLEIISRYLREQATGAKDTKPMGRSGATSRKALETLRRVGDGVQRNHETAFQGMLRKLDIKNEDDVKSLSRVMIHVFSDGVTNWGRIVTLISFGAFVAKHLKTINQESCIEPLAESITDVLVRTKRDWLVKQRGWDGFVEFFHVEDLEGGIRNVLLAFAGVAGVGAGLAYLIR
# [1] = reactive fragments (SZ, TA), 100 μM per FIG. 22 legend, FP assay
smiles,measurement,setting,value
Cc1ccc(-c2ccc(C(=O)O)cc2)cc1 [SK_2_170],inhibition at 100 µM,Bcl-XL; [1],7 ± 13%
same,inhibition at 100 µM,Mcl-1; [1],6.8 ± 1.3%
Cc1nc(-c2ccccc2)sc1C(=O)NS(=O)(=O)c1ccc(CN2CCN(c3ccccc3)CC2)cc1 [SZ1TA3],inhibition at 50 µM,Bcl-XL,6%
CN(CCc1ccccc1)Cc1ccc(S(=O)(=O)NC(=O)c2ccccc2)cc1 [SZ2TA1],inhibition at 50 µM,Bcl-XL,2%
CN(CCc1ccccc1)Cc1ccc(S(=O)(=O)NC(=O)c2ccc(N3CCC(C)(C)CC3)cc2)cc1 [SZ2TA2],inhibition at 50 µM,Bcl-XL,9%
Cc1nc(-c2ccccc2)sc1C(=O)NS(=O)(=O)c1ccc(CN(C)CCc2ccccc2)cc1 [SZ2TA3],inhibition at 50 µM,Bcl-XL,7%
COc1cc2c(cc1OC)C(c1ccccc1)N(CC(=O)NS(=O)(=O)c1ccc(CN(C)CCc3ccccc3)cc1)CC2 (stereo not drawn) [SZ2TA4],inhibition at 50 µM,Bcl-XL,25%
CC(=O)Nc1ccc(S(=O)(=O)NC(=O)c2ccccc2)cc1 [SZ3TA1],inhibition at 50 µM,Bcl-XL,0%
CC(=O)Nc1ccc(S(=O)(=O)NC(=O)c2cccc([N+](=O)[O-])c2)cc1 [SZ3TA6],inhibition at 50 µM,Bcl-XL,0%
CC(=O)Nc1ccc(S(=O)(=O)NC(=O)c2cccc3ccccc23)cc1 [SZ3TA7],inhibition at 50 µM,Bcl-XL,0%
CC(=O)Nc1ccc(S(=O)(=O)NC(=O)c2ccc(OC(F)(F)F)cc2)cc1 [SZ3TA8],inhibition at 50 µM,Bcl-XL,0%
CC(=O)Nc1ccc(S(=O)(=O)NC(=O)c2ccco2)cc1 [SZ3TA9],inhibition at 50 µM,Bcl-XL,0%
CC(=O)Nc1ccc(S(=O)(=O)N=[N+]=[N-])cc1 [SZ3],inhibition at 100 µM,Bcl-XL; [1],6.7 ± 4.5%
same,inhibition at 100 µM,Mcl-1; [1],< 1%
O=C(NS(=O)(=O)c1ccc(NCCSc2ccccc2)c([N+](=O)[O-])c1)c1ccccc1 [SZ4TA1],inhibition at 50 µM,Bcl-XL,14%
CC1(C)CCN(c2ccc(C(=O)NS(=O)(=O)c3ccc(NCCSc4ccccc4)c([N+](=O)[O-])c3)cc2)CC1 [SZ4TA2],IC50 against Bcl-XL (in words),Bcl-XL,in the nM range
same,inhibition at 50 µM,Bcl-XL,100%
[N-]=[N+]=NS(=O)(=O)c1ccc(NCCSc2ccccc2)c([N+](=O)[O-])c1 [SZ4],inhibition at 100 µM,Bcl-XL,< 1%
same,inhibition at 100 µM,Mcl-1,23.4 ± 14.9%
Cc1ccc(S(=O)(=O)NC(=O)c2ccccc2)cc1 [SZ5TA1],inhibition at 50 µM,Bcl-XL,29%
Cc1ccc(S(=O)(=O)NC(=O)c2ccc(N3CCC(C)(C)CC3)cc2)cc1 [SZ5TA2],inhibition at 50 µM,Bcl-XL,28%
Cc1ccc(S(=O)(=O)N=[N+]=[N-])cc1 [SZ5],% Inhibition Bcl-XL,Bcl-XL; [1],2.3 ± 1.1%
same,% Inhibition Mcl-1,Mcl-1; [1],1.2 ± 7.9%
[N-]=[N+]=NS(=O)(=O)c1ccc2ccc(S(=O)(=O)NCCSc3ccccc3)cc2c1 [SZ6],inhibition at 100 µM,Bcl-XL; [1],4.6 ± 4.7%
same,inhibition at 100 µM,Mcl-1; [1],3.4 ± 0.2%
CC1(C)CCN(c2ccc(C(=O)NS(=O)(=O)c3ccc4ccc(S(=O)(=O)NCCSc5ccccc5)cc4c3)cc2)CC1 [SZ7TA2],inhibition at 50 µM,Bcl-XL,76%
CC(C)(C)c1ccc(-c2ccc(S(=O)(=O)N=[N+]=[N-])cc2)cc1 [SZ8],inhibition at 100 µM,Bcl-XL; [1],2.2 ± 0.7%
same,inhibition at 100 µM,Mcl-1; [1],< 1%
[N-]=[N+]=NS(=O)(=O)c1ccc(CN(CCSc2ccccc2)Cc2ccc(S(=O)(=O)NC(=O)c3ccccc3)cc2)cc1 [SZ9TA1],inhibition at 50 µM,Bcl-XL,80%
CC1(C)CCN(c2ccc(C(=O)NS(=O)(=O)c3ccc(CN(CCSc4ccccc4)Cc4ccc(S(=O)(=O)N=[N+]=[N-])cc4)cc3)cc2)CC1 [SZ9TA2],inhibition at 50 µM,Bcl-XL,38%
Cc1nc(-c2ccccc2)sc1C(=O)NS(=O)(=O)c1ccc(CN(CCSc2ccccc2)Cc2ccc(S(=O)(=O)N=[N+]=[N-])cc2)cc1 [SZ9TA3],inhibition at 50 µM,Bcl-XL,22%
COc1cc(OC)cc(C(=O)NS(=O)(=O)c2ccc(CN(CCSc3ccccc3)Cc3ccc(S(=O)(=O)N=[N+]=[N-])cc3)cc2)c1 [SZ9TA5],inhibition at 50 µM,Bcl-XL,60%
[N-]=[N+]=NS(=O)(=O)c1ccc(CN(CCSc2ccccc2)Cc2ccc(S(=O)(=O)N=[N+]=[N-])cc2)cc1 [SZ9],inhibition at 100 µM,Bcl-XL,4.7 ± 4%
same,inhibition at 100 µM,Mcl-1,13 ± 1.4%
[N-]=[N+]=NS(=O)(=O)c1ccc(CN(CCSc2ccccc2)Cc2ccc(S(N)(=O)=O)cc2)cc1 [SZ10],inhibition at 100 µM,Bcl-XL; [1],1.9 ± 3.8%
same,inhibition at 100 µM,Mcl-1; [1],< 1%
COc1cc2c(cc1OC)C(c1ccccc1)N(Cc1ccc(S(=O)(=O)N=[N+]=[N-])cc1)CC2 (stereo not drawn) [SZ11],inhibition at 100 µM,Bcl-XL; [1],< 1%
same,inhibition at 100 µM,Mcl-1; [1],< 1%
[N-]=[N+]=NS(=O)(=O)c1ccc(CNc2cccc([N+](=O)[O-])c2)cc1 [SZ12],inhibition at 100 µM,Bcl-XL; [1],< 1%
same,inhibition at 100 µM,Mcl-1; [1],< 1%
[N-]=[N+]=NS(=O)(=O)c1ccc(COc2ccccc2[N+](=O)[O-])cc1 [SZ13],% Inhibition Bcl-XL,Bcl-XL; [1],3.8 ± 4.1%
same,% Inhibition Mcl-1,Mcl-1; [1],<1%
